Measured values as given in US10828306B2, “Methotrexate for proliferative vitreoretinopathy” (Massachusetts Eye and Ear Infirmary, priority 2014, dated 2020).
Values joined by “and” are separate entries in the source; they are usually repeats but may differ in a detail not shown here. Identical values can stand only once. “Also recorded” adds a separate entry of the source.

What was measured:
[1] = tested on: patients, eyes with a wide variety of conditions including PVR; conditions: intravitreal, varying doses, cited from earlier work
[2] = tested on: human proliferative vitreoretinopathy (PVR) cells; assay: Growth of human PVR cells in culture; assay type: cell-based; conditions: for Growth of PVR cells versus control: methotrexate 400, 200, 100 (micrograms, μM), 30,000 cells per well
Method: The cells were treated with 100 μM, 200 μM, or 400 μM Methotrexate (MTX) as indicated, and the images were taken after 72 hours (2A), 1 week (2B) or 2 weeks (2C).
We hypothesized that methotrexate would inhibit human proliferative vitreoretinopathy (PVR) cells in culture. PVR membranectomy was performed in patients undergoing retinal detachment repair secondary to PVR. Using cellular separation techniques, cellular constituents of the PVR membranes were separated from the extracellular matrix membranes. 30,000 cells per well were placed into a standard 12 welled plate. All 12 wells received endothelial cell growth medium with supplemental growth factors. Four arms were designated consisting of three wells each. The first arm served as a control receiving the standard growth medium but no other intervention. The remaining wells were designated as treatment arms. The second arm of three wells served as the first treatment arm and exposed the cells to 400 micrograms of methotrexate. The third and fourth arms of three wells each exposed the cultured cells to 200 and 100 micrograms, respectively, of methotrexate.

[3] = tested on: patients with retinal detachment at high risk for proliferative vitreoretinopathy (PVR); assay: Pilot study of multiple intravitreal methotrexate injections after PPV in eyes at high risk for PVR; assay type: in vivo, human; design: IOP at last follow up / Final IOP: unit not given here
Excerpt: We hypothesized that the administration of multiple, intravitreal methotrexate injections into eyes with high-risk features for post-operative proliferative vitreoretinopathy (PVR) development will have improved visual outcomes, higher anatomic final reattachment rates, decreased reoperation rates, and decreased occurrence of PVR at 4 months postoperatively.
We have performed a small pilot study in 10 patients with retinal detachment whom had high-risk clinical factors for developing PVR.
Patients 18 years to 89 years old of both genders were eligible for this study if they required pars plana vitrectomy (PPV) for rhegmatagenous retinal detachment secondary to trauma, PPV for preexisting proliferative vitreoretinopathy grade C or higher, or if they had retinal detachments requiring PPV for other indications associated with high risk condition for PVR development, i.e.: giant retinal tears (Giant retinal tears are defined as tears involving 90° or more of the circumference of the globe), retinal breaks larger than 3 disc areas, long-standing retinal detachments, detachments associated with hemorrhage.
The PPV was performed under local or general anesthesia using three, 23 or 20 gauge sclerotomy ports. Any present epiretinal membranes were dissected using a membrane pick and/or forceps. Intraoperative tissue staining, perfluorocarbons, cryopexy, endolaser, scleral buckling, and lensectomy were performed as needed. Either silicone oil or gas was used as the tamponading agent.
Routine post-operative visits, which involve a dilated funduscopic examination, occurred on post-operative day 1, 7, month 1, month 2, and month 3.
In addition to receiving the above-described standard of care, patients received multiple intravitreal methotrexate injections during their post-operative period. The first injection was administered intraoperatively and subsequently was injected on post-op week 1,2,3,4,5,6,7,8 and on post-op month 3, for a total of 10 injections. Intravitreal methotrexate injections were performed aseptically after the topical application of anaesthesia and 5% povidone iodine to the conjunctival sac. Each patient received an intravitreal injection of 400 mcg/0.1 ml methotrexate, 3.0 to 3.5 mm posterior to the limbus, depending on lens status, with a 30-gauge needle.
After injection, patients were monitored for adverse events, including a full-dilated funduscopic examination.

[4] = one patient (studyid), follow up 4 to 39 months
[5] = one patient (studyid), intravitreal methotrexate 400 mcg/0.1 ml

Question: For `CN(Cc1cnc2nc(N)nc(N)c2n1)c1ccc(C(=O)N[C@@H](CCC(=O)O)C(=O)O)cc1` [methotrexate, N-[4-[[(2,4-diamino-6-pteridinyl)methyl]methylamino]benzoyl]-L-glutamic acid], which “Change in visual acuity for the group” value ([1]; 5 patients) is on record?
Answer: Its value is “no change in visual acuity”.

Question: And the “Number of patients with any improved vision” value ([1]; of 5 patients)?
Answer: The value was “one”.

Question: What about the “Proliferation of human PVR cells in culture” value ([2]; 100 μM, 200 μM, or 400 μM) of the same molecule?
Answer: The value was “inhibited proliferation”.

Question: And the “Growth of PVR cells versus control” value ([2]; 1 week)?
Answer: The value was “growth inhibition and lack of confluency”.

Question: What about the “Growth of PVR cells versus control” value ([2]; 2 weeks) of the same molecule?
Answer: The value was “inhibited growth and lack of confluency; also recorded: inhibition of cellular confluency continued”.

Question: And the “Other subjects with reaccumulation of fluid under the retina requiring re-operation, no membranes” value ([3]; 10 patients)?
Answer: The value was “Two”.

Question: What about the “Development of PVR while receiving methotrexate” value ([3]; 10 patients, three-month treatment protocol) of the same molecule?
Answer: Its value is “no subjects developed PVR”.

Question: And the “Subjects with a degree of conjunctival hyperemia” value ([3]; 10 patients, consistent with the use of silicone oil)?
Answer: Its value is “All subjects”.

Question: What about the “Median post-operative visual acuity” value ([3]; 10 patients, median pre-operative visual acuity Hand Motions at 2 feet) of the same molecule?
Answer: The value was 20/200.

Question: And the “Visual acuity and intraocular pressure at last follow up visit compared with post-operative month 4” value ([3]; all patients)?
Answer: Its value is “similar”.

Question: And the Significant adverse events ([3]; follow up 4 to 39 months, median 25 months)?
Answer: Its Significant adverse events is “no significant adverse events were observed”.

Question: And the “Adverse events observed: Conjunctival hyperemia” value ([3]; one patient (studyid))?
Answer: The value was 4 (2×) and 7 (3×) and 5 (3×) and 6 (2×).

Question: What about the “Adverse events observed: Elevated intraocular pressure” value ([3]; one patient (studyid)) of the same molecule?
Answer: Its value is 0 (9×) and 1.

Question: What about the “Adverse events observed: NLP” value ([3]; one patient (studyid)) of the same molecule?
Answer: The value was 0 (9×) and 1.

Question: And the “Adverse events observed: Superficial Punctate Keratopathy” value ([3]; one patient (studyid))?
Answer: The value was 0 (9×) and 1.

Question: And the Reoperations required ([3]; one patient (studyid))?
Answer: The Reoperations required was 1 (2×) and 0 (8×).

Question: What about the “IOP at last follow up” value [3, 4] of the same molecule?
Answer: Its value is 16 (2×) and 9 (3×) and 22 and 14 (2×) and 12 and 15.

Question: What about the “Visual acuity at last follow up” value [3, 4] of the same molecule?
Answer: Its value is 20/300 and 20/200 and NLP and 20/70 and 20/150 and 20/500.

Question: What about the “Detachments: Number of detachments due to PVR during study period” value [3, 5] of the same molecule?
Answer: Its value is 0 (9×) and 0*.

Question: What about the “Final IOP” value [3, 5] of the same molecule?
Answer: The value was 12 (3×) and 9 (2×) and 10 and 8 and 15 and 13 (2×).

Question: What about the “Visual Acuity, Post-op month 4” value ([3]; one patient (studyid), intravitreal methotrexate 400 mcg/0.1 ml, up to 10 injections over 3 months) of the same molecule?
Answer: Its value is 20/200 (4×) and 20/160 and 20/252 and NLP and 20/65 and 20/320.

Question: And the “Elevated intraocular pressure by Goldmann Tonometry” value ([3]; one patient, single examination, attributed to excessive steroid use)?
Answer: Its value is 44 mm Hg.

Question: What about the “Patients with superficial punctuate keratopathy (SPK)” value ([3]; single clinical exam, normal corneal surface one week later) of the same molecule?
Answer: Its value is “one”.

Question: What about the “PVR after completion of the injection protocol” value ([3]; trauma patient #4, at 3½ months postoperatively) of the same molecule?
Answer: Its value is “massive PVR two weeks after completion of the injection protocol”.
